Assay results: patent publication US9353072B2, “Antimicrobial substituted thiazoles and methods of use” (Purdue Research Foundation, priority 2012, dated 2016)
≈ marks a conversion by molar mass, not a printed value. Entries after “also recorded” stand apart in the source; their conditions may differ. Read-outs that look alike come from different tables or passages of the source.

Experiments:
[1] = tested on: MRSA ATCC 700699 (NRS1, VISA); assay: MIC/MBC broth microdilution, NRS1 (ATCC 700699); assay type: cell-based; conditions: Staphylococcus aureus
Protocol: (§1) Determination of minimum inhibitory concentration (MIC). The MICs of the lead thiazole compound (compound 1a) and nine derivatives tested against all 18 MRSA strains were determined, in triplicate samples, using the broth microdilution method in accordance with the recommendations contained in the CLSI guidelines.

[2] = tested on: VISA HIP07256 (NRS19); assay: MIC/MBC broth microdilution, NRS19 (VISA HIP07256); assay type: cell-based; conditions: Staphylococcus aureus
Protocol: as §1

[3] = tested on: VISA LIM 3 (NRS37); assay: MIC/MBC broth microdilution, NRS37 (VISA LIM 3); assay type: cell-based; conditions: Staphylococcus aureus
Protocol: as §1

[4] = tested on: NRS119; assay: MIC/MBC broth microdilution, NRS119; assay type: cell-based; conditions: Staphylococcus aureus
Protocol: as §1

[5] = tested on: MRSA USA400 (NRS123); assay: MIC/MBC broth microdilution, NRS123 (USA400); assay type: cell-based; conditions: Staphylococcus aureus
Protocol: as §1

[6] = tested on: MRSA USA100; assay: MIC broth microdilution, MRSA USA100; assay type: cell-based; conditions: Staphylococcus aureus, read-out: Minimum Inhibitory Concentration
Protocol: as §1

[7] = tested on: MRSA USA200; assay: MIC broth microdilution, MRSA USA200; assay type: cell-based; conditions: Staphylococcus aureus, read-out: Minimum Inhibitory Concentration
Protocol: as §1

[8] = tested on: MRSA NRS384 (USA300); assay: MIC/MBC broth microdilution, NRS384 (USA300); assay type: cell-based; conditions: Staphylococcus aureus
Protocol: as §1

[9] = tested on: MRSA USA500 (NRS385); assay: MIC/MBC broth microdilution, NRS385 (USA500); assay type: cell-based; conditions: Staphylococcus aureus
Protocol: as §1

[10] = tested on: MRSA USA800; assay: MIC broth microdilution, MRSA USA800; assay type: cell-based; conditions: Staphylococcus aureus, Table 2, read-out: Minimum Inhibitory Concentration
Protocol: as §1

[11] = tested on: murine macrophage cells (J774.A1); assay: In vitro cytotoxicity analysis, MTS assay; assay type: cell-based; conditions: 16 μM, 24 hours
Protocol: In vitro cytotoxicity analysis: Compounds were assayed at concentrations of 2 μM, 4 μM, 8 μM, and 16 μM against a macrophage cell line (J774.A1) to determine the potential toxic effect in vitro. Murine macrophage cells were cultured in Dulbeco's Modified Eagle Medium (Sigma-Aldrich, St. Louis, Mo., USA) with 10% Fetal Bovine Serum (USA Scientific, Inc.) at 37° C. with 5% CO2. Controls received DMSO alone at a concentration equal to that in drug-treated cell samples. The cells were incubated with the compounds in a 96-Well Plate at 37° C. and 5.0% CO2 for 24 hours prior to addition of the assay reagent MTS 3-(4,5-dimethylthiazol-2-yl)-5-(3-carboxymethoxyphenyl)-2-(4-sulfophenyl)-2H-tetrazolium) (Promega, Madison, Wis., USA). The reagent measures the succinate dehydrogenase mitochondrial activity as an indicator of cell viability and proliferation. Corrected absorbance readings (actual absorbance readings for each treatment subtracted from background absorbance) were taken using a kinetic ELISA microplate reader (Molecular Devices, Sunnyvale, Calif., USA). The quantity of viable cells after treatment with each compound was expressed as a percentage of the control, DMSO.

[12] = tested on: MRSA ATCC 43300; assay: MIC/MBC broth microdilution, MRSA ATCC 43300; assay type: cell-based, Staphylococcus aureus; conditions: Staphylococcus aureus
Protocol: as §1

[13] = tested on: NRS107; assay: MIC/MBC broth microdilution, NRS107; assay type: cell-based; conditions: Staphylococcus aureus
Protocol: as §1

[14] = tested on: NRS194; assay: MIC/MBC broth microdilution, NRS194; assay type: cell-based; conditions: Staphylococcus aureus
Protocol: as §1

[15] = tested on: MRSA (USA300); assay: Time-kill assay; assay type: cell-based, Staphylococcus aureus; conditions: 3.0×MIC; MRSA (USA300)
Protocol: Time-kill assay. […] Viable CFU/mL was determined by serial dilution and plating on trypticase soy agar (TSA) (Becton, Dickinson and Company, Sparks, Md., USA) plates after 0, 2, 4, 6, 8, 10, and 12 hours of incubation at 37° C. to identify the time required to reduce the bacterial cell count by 3-log10.

[16] = tested on: VRSA (VRS10); assay: MIC/MBC broth microdilution, VRSA (VRS10); assay type: cell-based, Staphylococcus aureus; conditions: Staphylococcus aureus; for MBC: read-out: Minimum Bactericidal Concentration; for MIC: read-out: Minimum Inhibitory Concentration
Protocol: as §1

[17] = read-out: Minimum Inhibitory Concentration
[18] = NRS 119 / VISA, read-out: Minimum Inhibitory Concentration
[19] = read-out: Minimum Bactericidal Concentration

CCCc1ccc(-c2nc(C)c(/C(C)=N/NC(=N)N)s2)cc1 [Compound 1c, 2-{1-[4-Methyl-2-(4-propylphenyl)thiazol-5-yl]ethylidene}hydrazinecarboximidamide]
MIC ([1]; Table 2, MRSA ATCC 700699, read-out: Minimum Inhibitory Concentration): 2.3 mg/L
MIC ([2]; Table 2, VISA HIP07256, read-out: Minimum Inhibitory Concentration): 2.3 mg/L
MIC ([3]; Table 2, VISA LIM 3, read-out: Minimum Inhibitory Concentration): 1.2 mg/L
MIC ([4]; Table 2, NRS119, read-out: Minimum Inhibitory Concentration): 2.3 mg/L
MIC ([5]; Table 2, MRSA USA400, read-out: Minimum Inhibitory Concentration): 1.2 mg/L
MIC ([6]; Table 2, MRSA USA100): 1.2 mg/L (≈ 3.8 µM)
MIC ([7]; Table 2, MRSA USA200): 2.3 mg/L (≈ 7.29 µM)
MIC ([8]; Table 2, MRSA USA300, read-out: Minimum Inhibitory Concentration): 1.2 mg/L
MIC ([9]; Table 2, MRSA USA500, read-out: Minimum Inhibitory Concentration): 2.3 mg/L
MIC [10]: 2.3 mg/L (≈ 7.29 µM)
toxicity toward murine macrophage cells [11]: exhibited toxicity; also recorded: toxic

CN[C@H](CC(C)C)C(=O)N[C@H]1C(=O)N[C@@H](CC(N)=O)C(=O)N[C@H]2C(=O)N[C@H]3C(=O)N[C@H](C(=O)N[C@H](C(=O)O)c4cc(O)cc(O)c4-c4cc3ccc4O)[C@H](O)c3ccc(c(Cl)c3)Oc3cc2cc(c3O[C@@H]2O[C@H](CO)[C@@H](O)[C@H](O)[C@H]2O[C@H]2C[C@](C)(N)[C@H](O)[C@H](C)O2)Oc2ccc(cc2Cl)[C@H]1O [Vancomycin, reference compound]
MBC [12]: 0.5 µM (≈ 0.725 µg/mL)
MIC [12]: 0.5 µM (≈ 0.725 µg/mL)
MIC [12, 17]: < 1 µM
MBC [1]: 2 µM (≈ 2.9 µg/mL)
MBC [2]: < 1 µM
MIC [2]: < 1 µM
MBC [3]: 2 µM (≈ 2.9 µg/mL)
MBC [13]: < 1 µM
MIC [13]: < 1 µM
MBC ([4]; NRS119): < 1 µM
MIC ([4]; NRS119): < 1 µM
MIC ([4]; NRS119, read-out: Minimum Inhibitory Concentration): 1.4 mg/L
MIC [4, 18]: < 1 µM
MBC [5]: 0.5 µM (≈ 0.725 µg/mL)
MIC [5]: 0.5 µM
MBC [14]: 0.5 µM (≈ 0.725 µg/mL)
MIC [14]: 0.5 µM (≈ 0.725 µg/mL)
MIC [6]: 1.4 mg/L (≈ 0.966 µM)
MIC [7]: 0.4 mg/L (≈ 0.276 µM)
MBC [8]: 0.5 µM (≈ 0.725 µg/mL)
MIC [8]: 0.5 µM
MBC [9]: 0.5 µM (≈ 0.725 µg/mL)
MIC [9]: 0.5 µM
time to reduce the number of CFU by 3-log10 [15]: > 12 hours

C/C(=N\NC(=N)N)c1sc(-c2cccc(F)c2)nc1C [Compound M16, (E)-2-(1-(2-(3-fluorophenyl)-4-methylthiazol-5-yl)ethylidene)hydrazinecarboximidamide]
MBC [12]: 128 µM (≈ 37.3 µg/mL)
MIC [12]: 128 µM (≈ 37.3 µg/mL)
MIC ([12]; 20 h): 32 µM (≈ 9.32 µg/mL)
MBC [12, 19]: 64 µM (≈ 18.6 µg/mL)
MIC [12, 17]: 32 µM (≈ 9.32 µg/mL)
MBC [1]: 128 µM (≈ 37.3 µg/mL)
MIC ([1]; 20 h): 128 µM
MBC [1, 19]: 64 µM (≈ 18.6 µg/mL)
MIC [1, 17]: 32 µM
MBC [2]: 128 µM (≈ 37.3 µg/mL)
MIC [2]: 128 µM
MBC [3]: 128 µM (≈ 37.3 µg/mL)
MIC [3]: 128 µM
MBC [13]: 128 µM (≈ 37.3 µg/mL)
MIC [13]: 128 µM (≈ 37.3 µg/mL)
MBC ([4]; NRS119): 128 µM (≈ 37.3 µg/mL)
MIC ([4]; NRS119): 128 µM
MBC ([4]; NRS 119 / VISA, read-out: Minimum Bactericidal Concentration): 64 µM (≈ 18.6 µg/mL)
MIC [4, 18]: 64 µM
MBC [5]: 128 µM (≈ 37.3 µg/mL)
MIC [5]: 128 µM
MBC [14]: 128 µM (≈ 37.3 µg/mL)
MIC [14]: 128 µM (≈ 37.3 µg/mL)
MBC [8]: 128 µM (≈ 37.3 µg/mL)
MIC [8]: 128 µM
MBC [9]: 128 µM (≈ 37.3 µg/mL)
MIC [9]: 128 µM
MBC ([16]; VRSA): 128 µM (≈ 37.3 µg/mL)
MIC ([16]; VRSA): 32 µM (≈ 9.32 µg/mL)

C/C(=N/NC(=N)N)c1sc(-c2ccc(-c3ccc(C(F)(F)F)cc3)cc2)nc1C [Compound M13]
MIC ([12]; Table 6, MRSA ATCC 43300, 128 μM down to 1.0 μM, 20 hours, read-out: MIC): 8 µM (≈ 3.34 µg/mL)
MBC ([12]; Table 6, MRSA ATCC 43300, plating on TSA, 20 hour incubation, read-out: MBC): 16 µM (≈ 6.68 µg/mL)
MBC ([12]; Table 7, MRSA (ATCC 43300), read-out: Minimum Bactericidal Concentration): 16 µM (≈ 6.68 µg/mL)
MIC ([12]; Table 7, MRSA (ATCC 43300), read-out: Minimum Inhibitory Concentration): 8 µM (≈ 3.34 µg/mL)
MBC ([12]; Table 8, ATCC 43300, read-out: MBC): 8 µM (≈ 3.34 µg/mL)
MIC ([12]; Table 8, ATCC 43300, read-out: MIC): 8 µM (≈ 3.34 µg/mL)
MBC ([1]; Table 7, VISA (NRS1), read-out: Minimum Bactericidal Concentration): 8 µM (≈ 3.34 µg/mL)
MIC ([1]; Table 7, VISA (NRS1), read-out: Minimum Inhibitory Concentration): 4 µM
MBC ([1]; Table 8, NRS1 (VISA), read-out: MBC): 8 µM (≈ 3.34 µg/mL)
MIC ([1]; Table 8, NRS1 (VISA), triplicates, 20 hours, read-out: MIC): 8 µM
MBC ([2]; Table 8, NRS19 (VISA), read-out: MBC): 8 µM (≈ 3.34 µg/mL)
MIC ([2]; Table 8, NRS19 (VISA), read-out: MIC): 8 µM
MBC ([3]; Table 8, NRS37 (VISA), read-out: MBC): 8 µM (≈ 3.34 µg/mL)
MIC ([3]; Table 8, NRS37 (VISA), read-out: MIC): 8 µM
MBC ([13]; Table 8, read-out: MBC): 16 µM (≈ 6.68 µg/mL)
MIC ([13]; Table 8, read-out: MIC): 8 µM (≈ 3.34 µg/mL)
MBC ([4]; NRS 119 / VISA, Table 7, VISA (NRS119), read-out: Minimum Bactericidal Concentration): 32 µM (≈ 13.4 µg/mL)
MIC ([4]; NRS 119 / VISA, Table 7, VISA (NRS119), read-out: Minimum Inhibitory Concentration): 16 µM
MBC ([4]; Table 8, NRS119, read-out: MBC): 16 µM (≈ 6.68 µg/mL)
MIC ([4]; Table 8, NRS119, read-out: MIC): 16 µM
MBC ([5]; Table 8, NRS123, read-out: MBC): 32 µM (≈ 13.4 µg/mL)
MIC ([5]; Table 8, NRS123, read-out: MIC): 16 µM
MBC ([14]; Table 8, read-out: MBC): 32 µM (≈ 13.4 µg/mL)
MIC ([14]; Table 8, read-out: MIC): 16 µM (≈ 6.68 µg/mL)
MBC ([8]; Table 8, NRS384, read-out: MBC): 16 µM (≈ 6.68 µg/mL)
MIC ([8]; Table 8, NRS384, read-out: MIC): 16 µM
MBC ([9]; Table 8, NRS385, read-out: MBC): 8 µM (≈ 3.34 µg/mL)
MIC ([9]; Table 8, NRS385, read-out: MIC): 8 µM
MBC ([16]; Table 7, VRSA (VRS10)): 16 µM (≈ 6.68 µg/mL)
MIC ([16]; Table 7, VRSA (VRS10)): 4 µM (≈ 1.67 µg/mL)
